Data from US20250084063A1 (Incyte Corporation, priority 2023, published 2025).

What was measured:
Format in all cases: cell-based
MRGPRX2 [1] = biological target: T1, MRGPRX2 (Homo sapiens, UniProt Q96LB1); experiment: MRGPRX2 FLIPR calcium mobilization assay; parameters: host or cells: CHO-K1; settings: CHO-K1 cells stably expressing human MRGPRX2; Ca2+ release, agonist Cortistatin-14 at EC80
T1 sequence (Q96LB1 1-330): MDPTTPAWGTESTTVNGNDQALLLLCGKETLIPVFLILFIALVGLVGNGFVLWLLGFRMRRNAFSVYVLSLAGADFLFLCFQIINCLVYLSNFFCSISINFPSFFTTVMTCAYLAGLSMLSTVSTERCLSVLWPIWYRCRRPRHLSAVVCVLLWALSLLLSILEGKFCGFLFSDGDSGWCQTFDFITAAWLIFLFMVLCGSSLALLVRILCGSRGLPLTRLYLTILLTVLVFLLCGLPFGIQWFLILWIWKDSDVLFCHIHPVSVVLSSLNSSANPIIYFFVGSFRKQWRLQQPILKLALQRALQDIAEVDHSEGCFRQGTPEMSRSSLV
Outline: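 CHO-K1 cells stably expressing human MRGPRX2, loaded with Calcium 6 dye, pre-incubated 30 min at room temperature with test compound in HBSS/20 mM HEPES pH 7.4. Then challenged with Cortistatin-14 at EC80; baseline-adjusted peak fluorescence over 110 s fitted to a Hill equation for IC50.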

MRGPRX2 [2] = biological target: T1, MRGPRX2; experiment: MRGPRX2 IP1 HTRF assay; parameters: host or cells: CHO-K1; settings: CHO-K1 cells stably expressing human MRGPRX2; IP1 accumulation, agonist Cortistatin 14 1 μM
MRGPRX2 [3] = biological target: T1, MRGPRX2; experiment: MRGPRX2 β-Arrestin assay; parameters: host or cells: PathHunter CHO-K1; settings: PathHunter CHO-K1 MRGPRX2 β-Arrestin cell line; agonist Cortistatin 14 0.25 μM
Outline: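 PathHunter CHO-K1 cells expressing ProLink-tagged MRGPRX2 and enzyme-acceptor-tagged β-arrestin were preincubated with serially diluted compound 1 h at 37 °C, then stimulated with 0.25 μM cortistatin 14 (final) for 90 min. β-arrestin recruitment was read by luminescence; IC50 from 3- or 4-parameter Hill fits normalised to DMSO and reference antagonist controls.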

| SMILES | IC50 (MRGPRX2 [1]) [nM] | IC50 (MRGPRX2 [2]) [nM] | IC50 (MRGPRX2 [3]) [nM] |
| --- | --- | --- | --- |
| O=C1CCC(CNc2cc(C(F)(F)F)nc3ccc(Cl)cc23)(c2ccccc2)N1 (stereo not drawn) [Example 45, 5-(((6-Chloro-2-(trifluoromethyl)quinolin-4-yl)amino)methyl)-5-phenylpyrrolidin-2-one] | 0.1 to 100 | 0.1 to 100 | 0.1 to 100 |
| Fc1ccc(C2(CNc3cc(C(F)(F)F)nc4ccc(Cl)cc34)COCCO2)cc1 (stereo not drawn) [Example 53, 6-Chloro-N-((2-(4-fluorophenyl)-1,4-dioxan-2-yl)methyl)-2-(trifluoromethyl)quinolin-4-amine] | 0.1 to 100 | 0.1 to 100 | 0.1 to 100 |
| Nc1ccc(N2CCC(CNc3cc(C(F)(F)F)nc4ccc(Cl)cc34)(c3ccccc3)CC2)nn1 [Example 78, N-((1-(6-Aminopyridazin-3-yl)-4-phenylpiperidin-4-yl)methyl)-6-chloro-2-(trifluoromethyl)quinolin-4-amine] | 0.1 to 100 | 0.1 to 100 | 0.1 to 100 |
| Cn1ncc2cc(C3(CNc4cc(C(F)(F)F)nc5ccc(Cl)cc45)CN(S(N)(=O)=O)C3)ccc21 [Example 82, 3-(((6-Chloro-2-(trifluoromethyl)quinolin-4-yl)amino)methyl)-3-(1-methyl-1H-indazol-5-yl)azetidine-1-sulfonamide] | 0.1 to 100 | 100 to 1000 | 0.1 to 100 |
| Cn1ncc2ccc(C3(CNc4cc(C(F)(F)F)nc5ccc(Cl)cc45)CN(S(N)(=O)=O)C3)cc21 [Example 84, 3-(((6-Chloro-2-(trifluoromethyl)quinolin-4-yl)amino)methyl)-3-(1-methyl-1H-indazol-6-yl)azetidine-1-sulfonamide] | 0.1 to 100 | 100 to 1000 | 0.1 to 100 |
| CNC(=O)N1CC(CNc2cc(C(F)(F)F)nc3ccc(Cl)cc23)(n2cc(Cl)cn2)C1 [Example 98, 3-(4-Chloro-1H-pyrazol-1-yl)-3-(((6-chloro-2-(trifluoromethyl)quinolin-4-yl)amino)methyl)-N-methylazetidine-1-carboxamide] | 0.1 to 100 | 0.1 to 100 | 0.1 to 100 |
| CNC(=O)N1CC(CNc2cc(C(F)(F)F)nc3ccc(Cl)cc23)(n2cc(Br)cn2)C1 [Example 99, 3-(4-Bromo-1H-pyrazol-1-yl)-3-(((6-chloro-2-(trifluoromethyl)quinolin-4-yl)amino)methyl)-N-methylazetidine-1-carboxamide] | 0.1 to 100 | 0.1 to 100 | 0.1 to 100 |
| O=C(NC1CC(O)C1)N1CC(CNc2cc(C(F)(F)F)nc3ccc(Cl)cc23)(n2cc(F)cn2)C1 (stereo not drawn) [Example 106, 3-(((6-Chloro-2-(trifluoromethyl)quinolin-4-yl)amino)methyl)-3-(4-fluoro-1H-pyrazol-1-yl)-N-(3-hydroxycyclobutyl)azetidine-1-carboxamide] | 0.1 to 100 | 0.1 to 100 | 0.1 to 100 |
| O=C1NC(=O)C2(CC(CNc3cc(C(F)(F)F)nc4ccc(Cl)cc34)(c3ccccc3)C2)N1 (stereo not drawn) [Example 108, 2-(((6-Chloro-2-(trifluoromethyl)quinolin-4-yl)amino)methyl)-2-phenyl-5,7-diazaspiro[3.4]octane-6,8-dione] | 0.1 to 100 | 0.1 to 100 | 0.1 to 100 |

Now from value to compound:

| IC50 (MRGPRX2 [1]) [nM] | IC50 (MRGPRX2 [2]) [nM] | IC50 (MRGPRX2 [3]) [nM] | SMILES |
| --- | --- | --- | --- |
| 0.1 to 100 | 0.1 to 100 | 0.1 to 100 | NS(=O)(=O)N1CC(CNc2cc(C(F)(F)F)nc3ccc(Cl)cc23)(c2ccc(F)cn2)C1 [Example 46, 3-(((6-Chloro-2-(trifluoromethyl)quinolin-4-yl)amino)methyl)-3-(5-fluoropyridin-2-yl)azetidine-1-sulfonamide] |
| 0.1 to 100 | 0.1 to 100 | 0.1 to 100 | NC(=O)N1CC(CNc2cc(C(F)(F)F)nc3ccc(Cl)cc23)(c2ccc(F)cn2)C1 [Example 47, 3-(((6-Chloro-2-(trifluoromethyl)quinolin-4-yl)amino)methyl)-3-(5-fluoropyridin-2-yl)azetidine-1-carboxamide] |
| 0.1 to 100 | 0.1 to 100 | 0.1 to 100 | CNC(=O)N1CCC(CNc2cc(C(F)(F)F)nc3ccc(Cl)cc23)(c2ccc(F)cn2)C1 (stereo not drawn) [Example 49, 3-(((6-Chloro-2-(trifluoromethyl)quinolin-4-yl)amino)methyl)-3-(5-fluoropyridin-2-yl)-N-methylpyrrolidine-1-carboxamide] |
| 0.1 to 100 | 0.1 to 100 | 0.1 to 100 | CNC(=O)N1CC(CNc2cc(C(F)(F)F)nc3ccc(Cl)cc23)(n2cccn2)C1 [Example 52, 3-(((6-Chloro-2-(trifluoromethyl)quinolin-4-yl)amino)methyl)-N-methyl-3-(1H-pyrazol-1-yl)azetidine-1-carboxamide] |
| 0.1 to 100 | 100 to 1000 | 100 to 1000 | NC(=O)N1CC(CNc2cc(C(F)(F)F)nc3cc(F)ccc23)(c2ccc(F)cn2)C1 [Example 59, 3-(((7-Fluoro-2-(trifluoromethyl)quinolin-4-yl)amino)methyl)-3-(5-fluoropyridin-2-yl)azetidine-1-carboxamide] |
| 0.1 to 100 | 100 to 1000 | 100 to 1000 | NS(=O)(=O)N1CC(CNc2cc(C(F)(F)F)nc3ccc(Cl)cc23)(c2ccc3ccccc3n2)C1 [Example 80, 3-(((6-Chloro-2-(trifluoromethyl)quinolin-4-yl)amino)methyl)-3-(quinolin-2-yl)azetidine-1-sulfonamide] |
| 0.1 to 100 | 100 to 1000 | 0.1 to 100 | Cc1csc(C2(CNc3cc(C(F)(F)F)nc4ccc(Cl)cc34)CN(S(N)(=O)=O)C2)n1 [Example 81, 3-(((6-Chloro-2-(trifluoromethyl)quinolin-4-yl)amino)methyl)-3-(4-methylthiazol-2-yl)azetidine-1-sulfonamide] |
| 0.1 to 100 | 100 to 1000 | 100 to 1000 | CNC(=O)N1CC(CNc2cc(C(F)(F)F)nc3ccc(Cl)cc23)(c2ccc3cnn(C)c3c2)C1 [Example 83] |
| 0.1 to 100 | 0.1 to 100 | 0.1 to 100 | O=C(NC1CCC1)N1CC(CNc2cc(C(F)(F)F)nc3ccc(Cl)cc23)(n2cc(F)cn2)C1 [Example 107, 3-(((6-Chloro-2-(trifluoromethyl)quinolin-4-yl)amino)methyl)-N-cyclobutyl-3-(4-fluoro-1H-pyrazol-1-yl)azetidine-1-carboxamide] |
| 0.1 to 100 | 0.1 to 100 | 0.1 to 100 | [2H]C([2H])([2H])NC(=O)N1CC(CNc2cc(C(F)(F)F)nc3ccc(Cl)cc23)(n2ccc(F)n2)C1 [Example 109, 3-(((6-Chloro-2-(trifluoromethyl)quinolin-4-yl)amino)methyl)-3-(3-fluoro-1H-pyrazol-1-yl)-N-(methyl-d3)azetidine-1-carboxamide] |
